Measured values reported in patent publication US9605005B2, “Alkynyl alcohols and methods of use” (Genentech, Inc., priority 2013, dated 2017).

The compounds below were run against nuclear factor-kappa B (NF-kB)-inducing kinase (NIK) (Homo sapiens (Human), UniProt Q99558) (assay: NIK enzyme inhibition assay (Transcreener ADP, NIK ADP-FP)). Details: not given.
Format: biochemical

Sequence of nuclear factor-kappa B (NF-kB)-inducing kinase (NIK) (Q99558 whole entry): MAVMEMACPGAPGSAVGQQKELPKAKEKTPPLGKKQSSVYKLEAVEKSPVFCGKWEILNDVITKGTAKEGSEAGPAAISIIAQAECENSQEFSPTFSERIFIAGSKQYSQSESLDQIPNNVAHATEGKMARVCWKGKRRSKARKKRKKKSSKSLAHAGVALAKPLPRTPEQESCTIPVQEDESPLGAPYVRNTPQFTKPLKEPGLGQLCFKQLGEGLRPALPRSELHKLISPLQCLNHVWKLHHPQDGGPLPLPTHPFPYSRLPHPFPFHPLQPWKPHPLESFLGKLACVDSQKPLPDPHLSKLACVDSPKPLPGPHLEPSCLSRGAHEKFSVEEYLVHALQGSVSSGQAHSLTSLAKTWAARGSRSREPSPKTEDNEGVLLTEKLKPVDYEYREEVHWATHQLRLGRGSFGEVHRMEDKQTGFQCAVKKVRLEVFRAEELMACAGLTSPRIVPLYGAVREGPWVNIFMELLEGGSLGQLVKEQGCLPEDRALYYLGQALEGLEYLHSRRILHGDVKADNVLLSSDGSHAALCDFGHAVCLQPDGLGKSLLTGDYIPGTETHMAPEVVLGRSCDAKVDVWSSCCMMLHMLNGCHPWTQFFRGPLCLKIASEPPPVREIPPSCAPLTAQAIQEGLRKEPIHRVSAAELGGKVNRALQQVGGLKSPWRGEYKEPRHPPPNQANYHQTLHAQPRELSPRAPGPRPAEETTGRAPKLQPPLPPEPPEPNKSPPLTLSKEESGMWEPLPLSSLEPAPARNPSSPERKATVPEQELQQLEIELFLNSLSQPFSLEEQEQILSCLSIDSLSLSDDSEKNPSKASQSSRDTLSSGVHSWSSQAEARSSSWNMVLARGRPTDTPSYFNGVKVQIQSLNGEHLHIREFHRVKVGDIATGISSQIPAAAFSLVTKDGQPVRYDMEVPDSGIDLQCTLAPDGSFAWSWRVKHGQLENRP

Compound `CN1CC[C@@](O)(C#Cc2cccc(-n3nc(C(N)=O)c4cnncc43)c2)C1=O` [Compound 190, 1-[3-[2-[(3R)-3-hydroxy-1-methyl-2-oxo-pyrrolidin-3-yl]ethynyl]phenyl]pyrazolo [3,4-d]pyridazine-3-carboxamide] has a Ki of 6.8 nM.

Same assay, conditions: purified NIK 0.5 nM, 10 μM ATP, fluorescence polarization; read-out: NIK ADP-FP (Ki μM)

`CN1CC[C@@](O)(C#Cc2cccc(-n3nc(C(N)=O)c4cc(-c5ncc[nH]5)ccc43)c2)C1=O` [Compound 182, 1-[3-[2-[(3R)-3-hydroxy-1-methyl-2-oxo-pyrrolidin-3-yl]ethynyl]phenyl]-5-(1H-imidazol-2-yl)indazole-3-carboxamide] and `CN1CC[C@@](O)(C#Cc2cccc(-n3nc(C(N)=O)c4cnc(C#N)cc43)c2)C1=O` [Compound 133, 6-cyano-1-[3-[2-[(3R)-3-hy-droxy-1-methyl-2-oxo-pyrroli-din-3-yl]ethynyl]phenyl] pyrazolo[4,3-c]pyridine-3-carboxamide] are within 1.5-fold of each other in Ki: 1.51 nM for the first, 1.31 nM for the second.

Compared with `NC(=O)c1nn(-c2cccc(C#C[C@@]3(O)CCCC3=O)c2)c2ccccc12` [Compound 115, 1-[3-[2-[(1S)-1-hydroxy-2-oxo-cyclopentyl]ethynyl]phe-nyl]indazole-3-carboxamide], `NC(=O)c1nn(-c2cccc(C#C[C@]3(O)CCOC3=O)c2)c2ccccc12` [Compound 171, 1-[3-[2-[(3R)-3-hydroxy-2-oxo-tetrahydrofuran-3-yl]eth-ynyl]phenyl]indazole-3-carbox-amide] is 11-fold lower in Ki: 86.1 nM for the first, 8.12 nM for the second. The second binds more tightly here.

First: CN1C[C@H](O)[C@](O)(C#Cc2cccc(-n3nc(C(N)=O)c4ccccc43)c2)C1=O [Compound 128, 1-[3-[2-[(3R,4S)-3,4-dihydroxy-1-methyl-2-oxo-pyrroli-din-3-yl]ethynyl]phenyl]inda-zole-3-carboxamide]
Second: CN1C[C@@H](O)[C@@](O)(C#Cc2cccc(-n3nc(C(N)=O)c4ccccc43)c2)C1=O [Compound 126, 1-[3-[2-[(3S,4R)-3,4-dihydroxy-1-methyl-2-oxo-pyrroli-din-3-yl]ethynyl]phenyl]inda-zole-3-carboxamide]
The Ki of the first is 2.1-fold higher: 1250 nM for the first, 591 nM for the second.

Compared with `CN(C)C(=O)C(O)C#Cc1cccc(-n2nc(C(N)=O)c3ccccc32)c1` (centres unmarked) [Compound 163, 1-[3-[4-(dimethyalmino)-3-hydroxy-4-oxo-but-1-ynyl]phenyl]indazole-3-carboxamide], `CN1C[C@@H](O)[C@](O)(C#Cc2cccc(-n3nc(C(N)=O)c4ccccc43)c2)C1=O` [Compound 127, 1-[3-[2-[(3R,4R)-3,4-dihydroxy-1-methyl-2-oxo-pyrroli-din-3-yl]ethynyl]phenyl]inda-zole-3-carboxamide] is 25-fold lower in Ki: 250 nM for the first, 10.2 nM for the second. The second binds more tightly here.

First: CN1CC[C@@](O)(C#Cc2ccnc(-n3nc(C(N)=O)c4c3C[C@]3(C)C[C@@H]3C4)c2)C1=O [Compound 5, (4aR,5aS)-1-[4-[2-[(3R)-3-hydroxy-1-methyl-2-oxo-pyrroli-din-3-yl]ethynyl]-2-pyri-dyl]-5a-methyl-4,4a,5,6-tetrahydrocyclopropa[f]inda-zole-3-carboxamide]
Second: CN1CC[C@@](O)(C#Cc2ccnc(-n3nc(C(N)=O)c4c3C[C@H](O)CC4)c2)C1=O [Compound 61, (6R)-6-hydroxy-1-[4-[2-[(3R)-3-hydroxy-1-methyl-2-oxo-pyrrolidin-3-yl]ethynyl]-2-pyridyl]-4,5,6,7-tetrahydro-indazole-3-carboxamide]
The Ki of the first is 3.1-fold higher: 13.9 nM for the first, 4.46 nM for the second. The second binds more tightly here.

Going from `CN1CC[C@@](O)(C#Cc2ccnc(-n3nc(C(N)=O)c4c3CC3CC4C3)c2)C1=O` [Compound 59, (R)-1-(4-((3-hydroxy-1-meth-yl-2-oxopyrrolidin-3-yl)eth-ynyl)pyridin-2-yl)-4,5,6,7-tetrahydro-1H-4,6-methano-indazole-3-carboxamide] to `CN1CC[C@@](O)(C#Cc2ccnc(-n3nc(C(N)=O)c4c3C3CC(C4)C3)c2)C1=O` [Compound 58, (R)-1-(4-((3-hydroxy-1-meth-yl-2-oxopyrrolidin-3-yl)eth-ynyl)pyridin-2-yl)-4,5,6,7-tetrahydro-1H-5,7-methano-indazole-3-carboxamide], the Ki rises from 7.2 nM to 18.7 nM (2.6-fold).

Going from `CN1CC[C@@](O)(C#Cc2cccc(-n3nc(C(N)=O)c4c3CCN(C(=O)C3CC3)C4)c2)C1=O` [Compound 20, 5-(cyclopropanecarbonyl)-1-[3-[2-[(3R)-3-hydroxy-1-methyl-2-oxo-pyrrolidin-3-yl]ethynyl]phenyl]-6,7-dihydro-4H-pyrazolo[4,3-c]pyri-dine-3-carboxamide] to `CN1CC[C@@](O)(C#Cc2cccc(-n3nc(C(N)=O)c4c3CCN([S@+](C)[O-])C4)c2)C1=O` [Compound 124, 1-[3-[2-[(3R)-3-hydroxy-1-methyl-2-oxo-pyrrolidin-3-yl]ethynyl]phenyl]-5-[(S)-methylsulfinyl]-6,7-dihydro-4H-pyrazolo[4,3-c]pyridine-3-carboxamide], the Ki rises from 4.89 nM to 46.4 nM (9.5-fold). The first binds more tightly here.

Going from `CN1CC[C@@](O)(C#Cc2cccc(-c3nc(C(N)=O)c4ccc(C(N)=O)cn34)c2)C1=O` [Compound 179, 3-[3-[2-[(3R)-3-hydroxy-1-methyl-2-oxo-pyrrolidin-3-yl]ethynyl]phenyl]imidazo [1,5-a]pyridine-1,6-dicarboxamide] to `CN1CC[C@@](O)(C#Cc2cccc(-c3nc(C(N)=O)c(N)s3)c2)C1=O` [Compound 195, 5-amino-2-[3-[2-[(3R)-3-hydroxy-1-methyl-2-oxo-pyrrolidin-3-yl]ethynyl]phenyl]thiazole-4-carboxamide], the Ki falls from 11.1 nM to 0.05 nM (220-fold).

First: CN1CC[C@@](O)(C#Cc2cccc(-n3nc(C(N)=O)c4c3CCC[C@@H]4n3cccn3)c2)C1=O [Compound 38, (4S)-1-[3-[2-[(3R)-3-hydroxy-1-methyl-2-oxo-pyrrolidin-3-yl]ethynyl]phenyl]-4-pyrazol-1-yl-4,5,6,7-tetrahydro-indazole-3-carboxamide]
Second: C[C@@H]1Cc2c(C(N)=O)nn(-c3cccc(C#C[C@]4(O)CCN(C)C4=O)c3)c2C1 [Compound 194, (5R)-1-[3-[2-[(3R)-3-hydroxy-1-methyl-2-oxo-pyrrolidin-3-yl]ethynyl]phenyl]-5-methyl-5,6-dihydro-4H-cyclopenta[c]pyrazole-3-carboxamide]
The Ki of the first is 200-fold higher: 10.1 nM for the first, 0.05 nM for the second. The second binds more tightly here.

Going from `Cc1cc(C(N)=O)nn1-c1cc(C#C[C@]2(O)CCN(C)C2=O)ccn1` [Compound 79, 1-[4-[2-[(3R)-3-hydroxy-1-methyl-2-oxo-pyrrolidin-3-yl]ethynyl]-2-pyridyl]-5-meth-yl-pyrazole-3-carboxamide] to `CN1CC[C@@](O)(C#Cc2ccnc(-n3nc(C(N)=O)c4c3C[C@@H](O)CC4)c2)C1=O` [Compound 62, (6S)-6-hydroxy-1-[4-[2-[(3R)-3-hydroxy-1-methyl-2-oxo-pyrrolidin-3-yl]ethynyl]-2-pyridyl]-4,5,6,7-tetrahydro-indazole-3-carboxamide], the Ki falls from 10.8 nM to 5.47 nM (2-fold).

Going from `CN1CC[C@@](O)(C#Cc2cccc(-n3nc(C(N)=O)c4cnc(N5CC[C@H](O)C5)cc43)c2)C1=O` [Compound 139, 1-[3-[2-[(3R)-3-hydroxy-1-methyl-2-oxo-pyrrolidin-3-yl]ethynyl]phenyl]-6-[(3S)-3-hydroxypyrrolidin-1-yl]pyra-zolo[4,3-c]pyridine-3-carbox-amide] to `COc1cccc2c(C(N)=O)nn(-c3cccc(C#C[C@]4(O)CCN(C)C4=O)c3)c12` [Compound 23, 1-[3-[2-[(3R)-3-hydroxy-1-methyl-2-oxo-pyrrolidin-3-yl]ethynyl]phenyl]-7-methoxy-indazole-3-carboxamide], the Ki rises from 0.39 nM to 9.75 nM (25-fold).

First: CN(Cc1ccc2c(c1)c(C(N)=O)nn2-c1cc(C#C[C@]2(O)CCN(C)C2=O)ccn1)C(=O)CCCN [Compound 141, 5-[[4-aminobutanoyl(meth-yl)amino]methyl]-1-[4-[2-[(3R)-3-hydroxy-1-methyl-2-oxo-pyrrolidin-3-yl]ethynyl]-2-pyridyl]indazole-3-carbox-amide]
Second: CN1CC[C@@](O)(C#Cc2ccc(F)c(-n3nc(C(N)=O)c4c3COC4)c2)C1=O [Compound 191, 1-[2-fluoro-5-[2-[(3R)-3-hydroxy-1-methyl-2-oxo-pyrrolidin-3-yl]ethynyl]phenyl]-4,6-dihydrofuro[3,4-c] pyrazole-3-carboxamide]
The Ki of the first is 2.9-fold higher: 3.27 nM for the first, 1.11 nM for the second. The second binds more tightly here.

`C[C@](O)(C#Cc1cccc(-n2nc(C(N)=O)c3ccccc32)c1)c1c[nH]nn1` [Compound 118, 1-[3-[(3S)-3-hydroxy-3-(1H-triazol-4-yl)but-1-ynyl]phenyl]indazole-3-carboxamide] and `CN1C[C@H](O)[C@@](O)(C#Cc2cccc(-n3nc(C(N)=O)c4ccccc43)c2)C1=O` [Compound 125, 1-[3-[2-[(3S,4S)-3,4-dihydroxy-1-methyl-2-oxo-pyrroli-din-3-yl]ethynyl]phenyl]in-dazole-3-carboxamide] are within 1.5-fold of each other in Ki: 16.6 nM for the first, 19.6 nM for the second.

Going from `Cc1cc([C@](C)(O)C#Cc2ccnc(-n3nc(C(N)=O)cc3C)c2)no1` [Compound 80, 1-[4-[(3R)-3-hydroxy-3-(5-methylisoxazol-3-yl)but-1-ynyl]-2-pyridyl]-5-methyl-pyrazole-3-carboxamide] to `CN1CC[C@@](O)(C#Cc2cccc(-n3nc(C(N)=O)c4c3CCNC4)c2)C1=O` [Compound 21, 1-[3-[2-[(3R)-3-hydroxy-1-methyl-2-oxo-pyrrolidin-3-yl]ethynyl]phenyl]-4,5,6,7-tetra-hydropyrazolo[4,3-c]pyri-dine-3-carboxamide], the Ki rises from 84.5 nM to 233 nM (2.8-fold). The first binds more tightly here.

Compared with `CN1CC[C@@](O)(C#Cc2cccc(-n3nc(C(N)=O)c4c3CC(F)(F)C4)c2)C1=O` [Compound 199, 5,5-difluoro-1-[3-[2-[(3R)-3-hydroxy-1-methyl-2-oxo-pyrrolidin-3-yl]ethynyl]phenyl]-4,6-dihydrocyclopenta [c]pyrazole-3-carboxamide], `CN1CC[C@@](O)(C#Cc2cccc(-n3nc(C(N)=O)c4c3C[C@]3(C)C(C4)C3(F)F)c2)C1=O` (stereo partly drawn) [Compound 50, (5aR)-5,5-difluoro-1-[3-[2-[(3R)-3-hydroxy-1-methyl-2-oxo-pyrrolidin-3-yl]ethyn-yl]phenyl]-5a-methyl-4a,6-dihydro-4H-cyclopropa[f]inda-zole-3-carboxamide] is 650-fold higher in Ki: 0.26 nM for the first, 170 nM for the second.

With `CN1CC[C@@](O)(C#Cc2cccc(-n3nc(C(N)=O)c4c3CS(=O)(=O)CC4)c2)C1=O` [Compound 68, 1-[3-[2-[(3R)-3-hydroxy-1-methyl-2-oxo-pyrrolidin-3-yl]ethynyl]phenyl]-6,6-dioxo-5,7-dihydro-4H-thiopyra-no[3,4-c]pyrazole-3-carbox-amide] the Ki was 237 nM.
